{
  "source": "patent US20030228583A1",
  "about": "“Biomarkers of liver response” (priority 2001, published 2003)",
  "key": {"[1]": {"tested_on": "Liver Response-Associated Features (LRFs) in serum/plasma (blood)", "assay": "Proteome analysis (2D electrophoresis, Reference Protocol) of depleted serum/plasma of drug-treated vs control animals: relative abundance of LRFs", "description": "Samples from animals treated with various drugs at various timepoints and various dose levels can be collected, prepared, and analysed as described herein. […] Using the following procedure, proteins in liver tissue and serum/plasma from 5 control animals and 5 animals having liver response induced through drug treatment were separated by isoelectric focusing followed by SDS-PAGE and analyzed. Samples were taken and analyzed at three different time points designated “early”, “full manifestation” and “late”. Parts 6.1.1 to 6.1.9 (inclusive) of the procedure set forth below are hereby designated as the “Reference Protocol”.\nApproximately 200 μl venous blood was collected at the time of necropsy in serum seperation tubes and serum obtained by centrifugation for 3 minutes at 11,000 rpm using a Biofuge A centrifuge. 100 μl of the resulting serum was added to 15 μl protease inhibitor, vortexed and frozen at −80° C.\nA protein assay (Pierce (Rockford, Ill.) BCA Cat #23225) was performed on each serum/plasma sample as received. Prior to protein separation, each sample was processed for selective depletion of certain proteins, in order to enhance and simplify protein separation and facilitate analysis by removing proteins that may interfere with or limit analysis of proteins of interest. See International Patent Application No. PCT/GB99/01742, filed Jun. 1, 1999, which is incorporated by reference in its entirety, with particular reference to pages 3 and 6.\nThis was done by circulating the following solutions sequentially through the columns: (1) Dulbecco's Phosphate Buffered Saline (Gibco BRL Cat. No. 14190-094); (2) concentrated antibody solution; (3) 200 mM sodium carbonate buffer, pH 8.35; (4) cross-linking solution (200 mM sodium carbonate buffer, pH 8.35, 20 mM dimethylpimelimidate); and (5) 500 mM ethanolamine, 500 mM NaCl. A third (un-derivatised) protein G Hi-Trap column was then attached to the lower end of the tandem column assembly.\nThe chromatographic procedure was automated using an Akta Fast Protein Liquid Chromatography (FPLC) System such that a series of up to seven runs could be performed sequentially. […] Fractions (typically 3 ml per tube) were collected of unbound material (“Flowthrough fractions”) that eluted through the column during column loading and washing stages and of bound proteins (“Bound/Eluted fractions”) that were eluted by step elution with Immunopure Gentle Ag/Ab Elution Buffer (Pierce Cat. No. 21013). The eluate containing unbound material was collected in fractions which were pooled, desalted/concentrated by centrifugal ultrafiltration and stored to await further analysis by 2D PAGE.\nA volume of depleted serum/plasma containing approximately 300 μg of total protein was aliquoted and an equal volume of 10% (w/v) SDS (Fluka 71729), 2.3% (w/v) dithiothreitol (BDH 443852A) was added. The sample was heated at 95° C. for 5 mins, and then allowed to cool to 20° C . 125 μl of the following buffer was then added to the sample:\nThis mixture was vortexed, and centrifuged at 13000 rpm for 5 mins at 15° C., and the supernatant was analyzed by isoelectric focusing.\nIsoelectric focusing (IEF), was performed using the Immobiline® DryStrip Kit (Pharmacia BioTech), following the procedure described in the manufacturer's instructions, see Instructions for Immobilineg DryStrip Kit, Pharmacia, #18-1038-63, Edition AB (incorporated herein by reference in its entirety). Immobilized pH Gradient (IPG) strips (18 cm, pH 3-10 non-linear strips; Pharmacia Cat. #17-1235-01) were rehydrated overnight at 20° C. in a solution of 8M urea, 2% (w/v) CHAPS, 10 mM DTT, 2% (v/v) Resolytes 3.5-10, as described in the Immobiline DryStrip Users Manual. For IEF, 50 μl of supernatant (prepared as above) was loaded onto a strip, with the cup-loading units being placed at the basic end of the strip."}, "[2]": {"tested_on": "Male Sprague-Dawley rats", "assay": "Phenobarbital rat toxicity study (clinical observations, body weight, clinical laboratory measurements, organ weights, histopathology)"}, "[3]": {"conditions": "final necropsy (twelve days post dose)"}},
  "data": [
    {"smiles": "CCC1(c2ccccc2)C(=O)NC(=O)NC1=O", "note": "[phenobarbital]", "values": [
      {"measurement": "Fold Change LRF-235", "setting": "[1]; Early, P 0.0075", "value": 8.26, "unit": "fold"},
      {"measurement": "Fold Change LRF-223", "setting": "[1]; Early, P 0.0117", "value": 1.34, "unit": "fold"},
      {"measurement": "Fold Change LRF-158", "setting": "[1]; Early, P 0.0119", "value": "−1.33", "unit": "fold"},
      {"measurement": "Fold Change LRF-217", "setting": "[1]; Early, P 0.0122", "value": 2.16, "unit": "fold"},
      {"measurement": "Fold Change LRF-182", "setting": "[1]; Early, P 0.0178", "value": "−2.81", "unit": "fold"},
      {"measurement": "Fold Change LRF-179", "setting": "[1]; Early, P 0.0212", "value": "−1.37", "unit": "fold"},
      {"measurement": "Fold Change LRF-224", "setting": "[1]; Early, P 0.0216", "value": 1.30, "unit": "fold"},
      {"measurement": "Fold Change LRF-369", "setting": "[1]; Late, P 0.0097", "value": 2.53, "unit": "fold"},
      {"measurement": "Fold Change LRF-371", "setting": "[1]; Late, P 0.0109", "value": 3.02, "unit": "fold"},
      {"measurement": "Fold Change LRF-257", "setting": "[1]; Middle, P 0.0122", "value": "−1.42", "unit": "fold"},
      {"measurement": "Fold Change LRF-259", "setting": "[1]; Middle, P 0.0212", "value": "−1.34", "unit": "fold"},
      {"measurement": "Fold Change LRF-294", "setting": "[1]; Middle, P 0.0216", "value": 1.57, "unit": "fold"},
      {"measurement": "Clinical observations", "setting": "[2]; 100 mg/kg/day oral gavage, rat", "value": "generally well tolerated with no adverse clinical signs observed in any of the control or treated groups other than decreased activity"},
      {"measurement": "Survival", "setting": "[2]; 100 mg/kg/day oral gavage, rat", "value": "survived"},
      {"measurement": "Gross pathology observations", "setting": "[2]; 100 mg/kg/day oral, rat", "value": "no treatment-related gross findings"},
      {"measurement": "Creatinine decreased", "setting": "[2]; day 2, 100 mg/kg/day oral, rat", "value": 1.7, "unit": "×"},
      {"measurement": "Serum/plasma urea nitrogen decreased", "setting": "[2]; day 2, 100 mg/kg/day oral, rat", "value": 1.8, "unit": "×"},
      {"measurement": "Total protein decreased", "setting": "[2]; day 2, 100 mg/kg/day oral, rat", "value": 1.1, "unit": "×"},
      {"measurement": "Cholesterol increased", "setting": "[2]; day 5, 100 mg/kg/day oral, rat", "value": 1.5, "unit": "×"},
      {"measurement": "Glucose decreased", "setting": "[2]; day 5, 100 mg/kg/day oral, rat", "value": 1.6, "unit": "×"},
      {"measurement": "Serum/plasma urea nitrogen increased", "setting": "[2]; day 12, 100 mg/kg/day oral, rat", "value": 1.2, "unit": "×"},
      {"measurement": "% reticulocytes", "setting": "[2]; days 5 and 12", "value": "small but significant decreases"},
      {"measurement": "Group mean body weights vs concurrent controls", "setting": "[2]; either interim necropsy", "value": "No significant treatment-related changes"},
      {"measurement": "Mean body weight vs concurrent controls", "setting": "[2]; final necropsy", "value": "significant decrease"},
      {"measurement": "Absolute liver weights", "setting": "[2]; [3]", "value": "about the same as control"},
      {"measurement": "Relative liver weight increased", "setting": "[2]; [3]", "value": "about 1.06 × control mean"},
      {"measurement": "Liver weights increased", "setting": "[2]; five days post dose", "value": "about 1.5 × control mean"},
      {"measurement": "Increased numbers of hepatocytes with apoptotic bodies or mitotic figures, incidence", "setting": "[2]; same time point as centrilobular hypertrophy", "value": "3 of 5"},
      {"measurement": "Liver weights increased", "setting": "[2]; two days post dose", "value": "about 1.1 × control mean"},
      {"measurement": "Centrilobular hypertrophy, incidence", "setting": "[2]; two days post dose (so in the source)", "value": "5 of 5"},
      {"measurement": "Group means of the various hematology parameters (except % reticulocytes)", "setting": "[2]; vs vehicle control animals", "value": "not altered"}
    ]}
  ]
}
